Assay results taken from paper PMC12521615, “Accurate affinity models for SH2 domains from peptide binding assays and free‐energy regression” (Protein Science : A Publication of the Protein Society, 2025).
Non-standard residues stand in square brackets, D forms with d. Residues, ends and D or L forms follow the SMILES beside them. pY = N[C@@H](Cc1ccc(OP(=O)(O)O)cc1)C(=O)O

What follows are compounds tested against T1, Fyn SH2 domain (Homo sapiens, UniProt P06241) (assay: biochemical). Conditions: not given.
T1 construct: The human SH2 domains from Fyn (142–248), Lyn (121–228); His6-SUMO (N, cleaved yes); host or cells: Escherichia coli C43(DE3) with BirA helper plasmid
T1 sequence (P06241 142-248): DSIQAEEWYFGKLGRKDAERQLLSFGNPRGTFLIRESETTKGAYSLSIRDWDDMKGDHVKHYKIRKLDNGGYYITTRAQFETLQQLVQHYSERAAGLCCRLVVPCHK
Format: binding
From the text: The human SH2 domains from Fyn (142–248), Lyn (121–228), Blk (116–222), and Yes (150–257) kinases were PCR‐amplified from plasmids encoding the full‐length proteins and cloned using the NEBuilder® HiFi DNA Assembly Master Mix (NEB) in a pET plasmid backbone that was PCR‐amplified with the primers pETXbaI_for and pETXhoI_rev (these and all other primers are defined in Table S7) from the pET‐His6‐SUMO‐Grb2(SH2), as reported before (Li et al., [2023]), thus adding an N‐terminal His6‐SUMO tag and a C‐terminal AviTag® for biotinylation. The SH2 plasmids are available via Addgene: pET28‐His6‐SUMO‐Fyn‐SH2‐AviTag (214202), pET28‐His6‐SUMO‐Blk‐SH2‐AviTag (214204), pET28‐His6‐SUMO‐Lyn‐SH2‐AviTag (214207), pET28‐His6‐SUMO‐Yes‐SH2‐AviTag (214208), and pET28‐His6‐SUMO‐cSrc‐SH2‐AviTag (214230). For expression and parallel biotinylating of the SH2 domain product, Escherichia coli C43(DE3) cells carrying a BirA encoding helper plasmid were transformed with the respective SH2 domain expression construct and plated to grow overnight at 37°C on a streptomycin and kanamycin (100 μg/mL both) LB‐agar plate. The colonies were collected in 10 mL of TB medium and used to inoculate 1 L of TB medium and grown at 37°C and 215 rpm. Upon reaching an OD600 of 0.5, the expression of the SH2 domains was induced by adding IPTG up to 0.5 mM and biotin up to 250 μM, and the expressing culture was incubated at 18°C for 16–18 h. After removing the medium through centrifugation, the cell pellets were snap‐frozen in liquid N2 and stored at −80°C until purification. To purify the biotinylated SH2 domains, the cell pellets were resuspended in lysis buffer (50 mM Tris, pH 7.5, 300 mM NaCl, 20 mM imidazole, 10% glycerol), supplementing them with 2 mM β‐mercaptoethanol and 1× protease inhibitor cocktail before lysis by sonication (Fisherbrand Sonic Dismembrator). The soluble fraction separated after centrifugation at 33,000 g was run on a HisTrap HP column (Cytiva), then washed with 10 CV of the lysis buffer followed by 10 CV of wash buffer (50 mM Tris, pH 7.5, 50 mM NaCl, 10 mM imidazole, 10% glycerol). Next, the protein was eluted with elution buffer (50 mM Tris, pH 7.5, 50 mM NaCl, 250 mM imidazole, 10% glycerol) directly onto a 5 mL HiTrap Q HP anion exchange column (Cytiva). The biotinylated SH2 domain was then eluted from the anion exchange column with an NaCl gradient (50 mM Tris, pH 7.5, 0.05–1 M NaCl, 1 mM TCEP‐HCl), and the His6‐SUMO tag was cleaved using 0.05 mg/mL Ulp1 protease. The biotinylated SH2 domain was then collected in a flowthrough after running the cleavage reaction over a HisTrap HP column. Finally, the biotinylated SH2 domain in the flowthrough was run on a HiLoad 16/600 Superdex 75 pg size exclusion column (Cytiva) in storage buffer (20 mM HEPES, pH 7.5, 150 mM NaCl, 10% glycerol). The purified biotinylated SH2 domains were aliquoted, snap‐frozen in liquid N2, and stored at −80°C.
Measured binding constants (K D) from competition mode fluorescence polarization experiments were obtained using the purified SH2 domains used for the selection and chosen sets of peptides with a phosphorylated tyrosine exactly as described previously (Li et al., [2023]). […] (c‐Src SH2 consensus) was used as the probe, and for the Grb2 SH2 domain, the fluorescently labeled peptide FITC‐Ahx‐FDDPS(pY)VNVQN (Ahx = 6‐aminohexanoic acid) from the Y177 phospho‐tyrosine site of BCR. Before performing the competition mode fluorescence polarization measurement, the K D of the probes for the respective SH2 domains was first measured in a direct mode of fluorescence polarization.

| Compound | Kd [nM] |
| --- | --- |
| CC[C@H](C)[C@H](NC(=O)[C@@H]1CCCN1C(=O)[C@H](CCC(N)=O)NC(C)=O)C(=O)N[C@@H](Cc1ccccc1)C(=O)N[C@@H](CCC(=O)O)C(=O)NCC(=O)N[C@@H](Cc1ccc(OP(=O)(O)O)cc1)C(=O)N[C@@H](C)C(=O)N[C@@H](CC(C)C)C(=O)N1CCC[C@H]1C(=O)N[C@@H](Cc1c[nH]cn1)C(=O)N[C@@H](C)C(=O)NCC(N)=O [ACTA1 pY171] (Ac-QPIFEG[pY]ALPHAG-NH2) | 47.3 |
| CC(=O)N[C@@H](CCC(N)=O)C(=O)N[C@@H](CO)C(=O)N[C@@H](CC(C)C)C(=O)N[C@@H](CCC(=O)O)C(=O)N[C@@H](CCCCN)C(=O)N[C@@H](CO)C(=O)N[C@@H](Cc1ccc(OP(=O)(O)O)cc1)C(=O)N[C@@H](CCC(=O)O)C(=O)N[C@@H](CC(C)C)C(=O)N[C@@H](CC(C)C)C(=O)N[C@@H](CC(=O)O)C(=O)NCC(=O)NCC(N)=O [ACTB pY240 P243L] (Ac-QSLEKS[pY]ELLDGG-NH2) | 141 |
| CC[C@H](C)[C@H](NC(=O)CNC(=O)[C@H](CCC(=O)O)NC(=O)[C@@H](NC(=O)[C@H](CCC(N)=O)NC(C)=O)C(C)C)C(=O)N[C@@H](CO)C(=O)N[C@@H](Cc1ccc(OP(=O)(O)O)cc1)C(=O)N[C@@H](CC(=O)O)C(=O)N[C@@H](Cc1ccccc1)C(=O)N[C@H](C(=O)N1CCC[C@H]1C(=O)N[C@H](C(=O)NCC(N)=O)[C@@H](C)O)[C@@H](C)CC [CBS pY308 G307S] (Ac-QVEGIS[pY]DFIPTG-NH2) | 185 |
| CC(=O)N[C@@H](CCC(N)=O)C(=O)N[C@@H](CC(C)C)C(=O)N[C@@H](Cc1c[nH]cn1)C(=O)N[C@H](C(=O)N[C@@H](Cc1c[nH]cn1)C(=O)N1CCC[C@H]1C(=O)N[C@@H](Cc1ccc(OP(=O)(O)O)cc1)C(=O)N[C@@H](CCC(=O)O)C(=O)N[C@@H](CCCCN)C(=O)N[C@H](C(=O)N[C@@H](CCC(=O)O)C(=O)N[C@@H](CC(=O)O)C(=O)NCC(N)=O)C(C)C)C(C)C [Syn-F-1] (Ac-QLHVHP[pY]EKVEDG-NH2) | 30.2 |
| CSCC[C@H](NC(=O)[C@H](CCC(N)=O)NC(C)=O)C(=O)N[C@@H](CCC(=O)O)C(=O)N[C@@H](CCCCN)C(=O)N[C@@H](Cc1c[nH]cn1)C(=O)N[C@H](C(=O)N[C@@H](Cc1ccc(OP(=O)(O)O)cc1)C(=O)N[C@@H](CCC(=O)O)C(=O)N[C@@H](CO)C(=O)N[C@H](C(=O)N[C@H](C(=O)N[C@@H](CCC(N)=O)C(=O)NCC(N)=O)[C@@H](C)O)C(C)C)C(C)C [Syn-F-2] (Ac-QMEKHV[pY]ESVTQG-NH2) | 18.3 |

Same assay, conditions: Table S3, unpaired validation; competition fluorescence polarization; probe FITC-Ahx-GDG-pY-EEISPLLL-NH2 0.4 nM; [SH2] 4.12 nM; mean; read-out: Kd mean

| Compound | Kd [nM] |
| --- | --- |
| CC(=O)N[C@@H](CCC(N)=O)C(=O)N[C@@H](CO)C(=O)N[C@@H](CC(C)C)C(=O)N[C@@H](CCC(=O)O)C(=O)N[C@@H](CCCCN)C(=O)N[C@@H](CO)C(=O)N[C@@H](Cc1ccc(OP(=O)(O)O)cc1)C(=O)N[C@@H](CCC(=O)O)C(=O)N[C@@H](CC(C)C)C(=O)N1CCC[C@H]1C(=O)N[C@@H](CC(=O)O)C(=O)NCC(=O)NCC(N)=O [ACTB pY240] (Ac-QSLEKS[pY]ELPDGG-NH2) | 159 |
| CC[C@H](C)[C@H](NC(=O)CNC(=O)[C@H](CCC(=O)O)NC(=O)[C@@H](NC(=O)[C@H](CCC(N)=O)NC(C)=O)C(C)C)C(=O)NCC(=O)N[C@@H](Cc1ccc(OP(=O)(O)O)cc1)C(=O)N[C@@H](CC(=O)O)C(=O)N[C@@H](Cc1ccccc1)C(=O)N[C@H](C(=O)N1CCC[C@H]1C(=O)N[C@H](C(=O)NCC(N)=O)[C@@H](C)O)[C@@H](C)CC [CBS pY308] (Ac-QVEGIG[pY]DFIPTG-NH2) | 126 |
| CC[C@H](C)[C@H](NC(=O)[C@H](CC(C)C)NC(=O)[C@H](CO)NC(=O)[C@H](Cc1ccc(OP(=O)(O)O)cc1)NC(=O)[C@H](CCCNC(=N)N)NC(=O)[C@H](CCCNC(=N)N)NC(=O)[C@H](CCC(N)=O)NC(=O)[C@H](CC(=O)O)NC(=O)[C@H](CO)NC(=O)[C@H](CCC(N)=O)NC(C)=O)C(=O)N[C@@H](CC(=O)O)C(=O)N1CCC[C@H]1C(=O)NCC(N)=O [CLIP2 pY972 R977P] (Ac-QSDQRR[pY]SLIDPG-NH2) | 27 |
| CC[C@H](C)[C@H](NC(=O)[C@H](CC(C)C)NC(=O)[C@H](CO)NC(=O)[C@H](Cc1ccc(OP(=O)(O)O)cc1)NC(=O)[C@H](CCCNC(=N)N)NC(=O)[C@H](CCCNC(=N)N)NC(=O)[C@H](CCC(N)=O)NC(=O)[C@H](CC(=O)O)NC(=O)[C@H](CO)NC(=O)[C@H](CCC(N)=O)NC(C)=O)C(=O)N[C@@H](CC(=O)O)C(=O)N[C@@H](CCCNC(=N)N)C(=O)NCC(N)=O [CLIP2 pY972] (Ac-QSDQRR[pY]SLIDRG-NH2) | 78.5 |
